According to patent US10029984B2, “Mono- or di-substituted indole derivatives as dengue viral replication inhibitors” (Janssen Pharmaceuticals, Inc., priority 2015, dated 2018):

What was measured:
DENV-2 strain 16681 = assay: Tetravalent RT-qPCR assay Protocol A, serotype 2; assay type: cell-based; details: Dengue virus, DENV2, 72 h; RT-qPCR serotype 2 16681, Vero cells, day 3
[1] = Chiral stability at pH 7.4 (enantiomeric excess by Chiral SFC after incubation); assay type: physicochemical; details: buffered solution pH 7.4, 5 μM
Procedure: The chiral stability of Enantiomer 10B (R=OMe) was evaluated by determination of the enantiomeric excess (ee %) after incubation for 24 h and 48 h in a buffered solution at pH 7.4 at 40° C. and 60° C. To assess the influence of the methoxy-substituent of Enantiomer 10B (R=OMe) on the stability against racemization, the chiral stability of Enantiomer 10′B (R=H) was tested under the same conditions. To this end, 5 μM buffered (pH=7.4) solutions of 10B and 10′B were prepared by mixing 25 μL of a 100 μM solution of 10B and 10′B in DMSO with 475 μL aqueous buffer pH 7.4. Samples were taken 24 h and 48 h after incubation at 40° C. and 60° C. The analytical samples were analyzed by Chiral SFC (MS detection) and the chiral purity was expressed as the enantiomeric excess (ee %=% enantiomer B−% enantiomer A).

in vitro = assay type: cell-based; details: African green monkey, CC50
DENV-1 strain TC974#666 = assay: Tetravalent RT-qPCR assay Protocol A, serotype 1; assay type: cell-based; details: Dengue virus, DENV1, 72 h; RT-qPCR serotype 1 TC974#666, Vero cells, day 3
Vero cells = assay: in vitro; assay type: cell-based; details: African green monkey
How it was run: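 On the same plates after eGFP read-out, resazurin was added and cells incubated a further 5 h at 37 °C, 5% CO2; resorufin fluorescence read with 530 nm excitation. CC50 is the concentration halving resazurin conversion versus cell control; SI = CC50/EC50.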

## COc1cc(NC(C(=O)c2c[nH]c3cc(OC)c(C)cc23)c2ccc(F)cc2OC)cc(S(C)(=O)=O)c1 (single isomer, unassigned) [Enantiomer 10B, 2-(4-fluoro-2-methoxyphenyl)-2-((3-methoxy-5-(methylsulfonyl)phenyl)amino)-1-(6-methoxy-5-methyl-1H-indol-3-yl)ethanone]
DENV-2 strain 16681
  EC50: 0.605 nM
[1]; 40° C., 24 h
  ee %: 100%
[1]; 40° C., 48 h
  ee %: 100%
[1]; 60° C., 24 h
  ee %: 97%
[1]; 60° C., 48 h
  ee %: 97%
In vitro
  CC50 at 3 days: 5140 nM
DENV-1 strain TC974#666
  EC50: 4.46 nM
Vero cells
  CC50: 4500 nM
